Measured values as given in patent US20170210741A1, “Benzimidazole Compounds, Use As Inhibitors of WNT Signaling Pathway in Cancers, and Methods for Preparation Thereof” (Southern Research Institute, priority 2016, published 2017).
Read-outs that look alike come from different tables or passages of the source.

Columns and labels:
Assay type in all cases: cell-based
PANC-1 = test: In vitro cell viability assay (Cell Titer Glo), pancreatic cancer PANC-1; conditions: Homo sapiens, 72 h
Description: (§1) Breast cancer SUM159 was obtained from Asterand and grown according to supplier's recommendation. All other cell lines were obtained from ATCC and cultured in standard cell culture conditions with complete cell culture medium containing 10% FBS.
(§2) Cancer cells were seeded into optically clear tissue culture-treated black 96-well plates (for adherent cells) or low-attachment 96-well plates (for cancer stem cells) at 2,000-5000 cells/50 μL of media per well. The cells were treated with Wnt inhibitors at 0.1 to 10 μM for 72 h. Cell viability was measured by the Cell Titer Glo Assay from Promega.

Suit-2 = test: In vitro cell viability assay (Cell Titer Glo), pancreatic cancer Suit-2; conditions: 72 h
Description: as §1, §2

Wnt signaling = Wnt signaling reporter assay (Super8XTOPFlash luciferase) in LRP6-expressing HEK293 cells; conditions: Homo sapiens, 24 h treatment, luciferase normalized to β-galactosidase, read-out: IC50 (effects on Wnt signaling)
Description: HEK293 cells were plated into 24-well plates. After overnight culture, the cells were transiently transfected with 0.06 μg of the Super8XTOPFlash luciferase construct, 0.06 μg of β-galactosidase-expressing vector, and 0.06 μg of pCS-Myc-hLRP6 or control vector. After 24 h incubation, cells were treated with each individual compound in triplicate for 24 h. Cells were then lysed, and the luciferase and β-galactosidase activities were determined by the luciferase assay system (Promega) and β-galactosidase assay system (Promega), respectively. The luciferase activity was normalized to the β-galactosidase activity.
Table 2 below illustrates the effects of the disclosed compounds on Wnt signaling in LRP6-expressing HEK293 cells.

S2VP10 = test: In vitro cell viability assay (Cell Titer Glo), pancreatic cancer S2VP10; conditions: 72 h
Description: as §1, §2

HT-29 = test: In vitro cell viability assay (Cell Titer Glo), colorectal cancer HT-29; conditions: Homo sapiens, 72 h
Description: as §1, §2
(§3) Table 4 below illustrates the effects of the disclosed compounds on cell viability of colorectal cancer cell lines.

HCT116 = test: In vitro cell viability assay (Cell Titer Glo), colorectal cancer HCT116; conditions: Homo sapiens, HCT-116, 72 h
Description: as §1, §2, §3

2LMP = test: In vitro cell viability assay (Cell Titer Glo), breast cancer 2LMP; conditions: 72 h
Description: as §1, §2
(§4) Table 5 below illustrates the effects of the disclosed compounds on cell viability of breast cancer cell lines.

HCC1143 = test: In vitro cell viability assay (Cell Titer Glo), breast cancer HCC1143; conditions: Homo sapiens, 72 h
Description: as §1, §2, §4

SUM159 = test: In vitro cell viability assay (Cell Titer Glo), breast cancer SUM159; conditions: 72 h
Description: as §1, §2, §4

MDA-MB-468 = test: In vitro cell viability assay (Cell Titer Glo), breast cancer MDA-MB-468; conditions: Homo sapiens, 72 h
Description: as §1, §2, §4

L3.6pl = test: In vitro cell viability assay (Cell Titer Glo), pancreatic cancer L3.6pl; conditions: Homo sapiens, 72 h
Description: as §1, §2

[1] = PANC-1, adherent, complete medium 10% FBS, read-out: Cell viability (IC50) PANC-1 Adherent
[2] = PANC-1, cancer stem cell (CSC) enriching serum free medium, non-adherent plates, read-out: Cell viability (IC50) PANC-1 CSC
[3] = Suit-2, CSC enriching serum free medium, non-adherent plates, read-out: Cell viability (IC50) Suit-2 CSC
[4] = Suit-2, adherent, complete medium 10% FBS, read-out: Cell viability (IC50) Suit-2 Adherent
[5] = S2VP10, CSC enriching serum free medium, non-adherent plates, read-out: Cell viability (IC50) S2VP10 CSC
[6] = S2VP10, adherent, complete medium 10% FBS, read-out: Cell viability (IC50) S2VP10 Adherent
[7] = HT-29, CSC conditions, read-out: Cell viability (IC50) HT-29 CSC
[8] = HT-29, adherent, read-out: Cell viability (IC50) HT-29 Adherent
[9] = HCT116, CSC conditions, read-out: Cell viability (IC50) HCT116 CSC
[10] = HCT116, adherent, read-out: Cell viability (IC50) HCT116 Adherent
[11] = CSC conditions, read-out: Cell viability (IC50) 2LMP CSC
[12] = adherent, read-out: Cell viability (IC50) 2LMP Adherent
[13] = HCC1143, CSC conditions, read-out: Cell viability (IC50) HCC1143 CSC
[14] = HCC1143, adherent, read-out: Cell viability (IC50) HCC1143 Adherent
[15] = SUM159, CSC conditions, read-out: Cell viability (IC50) SUM159 CSC
[16] = SUM159, adherent, read-out: Cell viability (IC50) SUM159 Adherent
[17] = MDA-MB-468, CSC conditions, read-out: Cell viability (IC50) MDA-MB-468 CSC
[18] = MDA-MB-468, adherent, read-out: Cell viability (IC50) MDA-MB-468 Adherent
[19] = CSC enriching serum free medium, non-adherent plates, read-out: Cell viability (IC50) L3.6pl CSC
[20] = adherent, complete medium 10% FBS, read-out: Cell viability (IC50) L3.6pl Adherent

| SMILES | IC50 (PANC-1; [1]) [nM] | IC50 (PANC-1; [2]) [nM] | IC50 (Suit-2; [3]) [nM] | IC50 (Suit-2; [4]) [nM] | IC50 (S2VP10; [5]) [nM] | IC50 (S2VP10; [6]) [nM] | IC50 (HT-29; [7]) [nM] | IC50 (HT-29; [8]) [nM] | IC50 (HCT116; [9]) [nM] | IC50 (HCT116; [10]) [nM] | IC50 (Wnt signaling) [nM] | further results |
| --- | --- | --- | --- | --- | --- | --- | --- | --- | --- | --- | --- | --- |
| Oc1ccc(F)cc1-c1nc2c(Cl)cc(Cl)cc2[nH]1 [Compound 1, 2-(4,6-Dichloro-1H-benzo[d]imidazol-2-yl)-4-fluorophenol] | 1740 | 210 | 2840 | 9130 | 920 | 1620 |  |  |  |  | 1340 |  |
| Oc1ccc(F)cc1-c1nc2cc(Cl)c(F)cc2[nH]1 [Compound 3, 2-(5-Chloro-6-fluoro-1H-benzo[d]imidazol-2-yl)-4-fluorophenol] | 2320 | 410 | 1810 | 3760 | 330 | 1100 | 3090 | 6470 | 180 | 1610 | 2800 |  |
| Oc1ccc(Cl)cc1-c1nc2cc(Cl)c(Cl)nc2[nH]1 [Compound 9, 4-Chloro-2-(5,6-dichloro-3H-imidazo[4,5-b]pyridin-2-yl)phenol] |  |  | > 10000 | > 10000 | 870 | 2240 | 8950 | 9760 | 510 | 2090 | 1850 |  |
| CN1CCN(c2ccc(-c3nc4cc(Cl)c(Cl)cc4[nH]3)cc2)CC1 [Compound 10, 5,6-Dichloro-2-(4-(4-methylpipcrazin-1-yl)phenyl)-1H-benzo[d]imidazole] |  |  | 1340 | 5260 | 910 | 4760 | 130 | 3290 | 21000 | 11200 | 13 |  |
| Clc1cc2nc(-c3ccc(N4CCCCC4)cc3)[nH]c2cc1Cl [Compound 11, 5,6-dichloro-2-(4-(piperidin-1-yl)phenyl)-1H-benzo[d]imidazole] |  |  | > 10000 | 970 | > 10000 | 1680 | 40 | 670 | 570 | 1010 | 0.95 |  |
| Clc1cc2nc(-c3ccc(N4CCCC4)cc3)[nH]c2cc1Cl [Compound 12, 5,6-dichloro-2-(4-(pyrrolidin-1-yl)phenyl)-1H-benzo[d]imidazole] |  |  | > 10000 | 2100 | > 10000 | 2580 | 510 | 840 | 2680 | 1180 | 0.93 |  |
| CN1CCN(c2ccc(-c3nc4cc(Cl)c(Cl)cc4[nH]3)cc2F)CC1 [Compound 27, 5,6-dichloro-2-(3-fluoro-4-(4-methylpiperazin-1-yl)phenyl)-1H-benzo[d]imidazole] |  |  | 1990 | 8920 | 2910 | 8310 |  | 140 | 1760 | 830 | 4.67 |  |

Compounds with a lower IC50 (Suit-2; [3]), results first:

| IC50 (PANC-1; [1]) [nM] | IC50 (PANC-1; [2]) [nM] | IC50 (Suit-2; [3]) [nM] | IC50 (Suit-2; [4]) [nM] | IC50 (S2VP10; [5]) [nM] | IC50 (S2VP10; [6]) [nM] | IC50 (HT-29; [7]) [nM] | IC50 (HT-29; [8]) [nM] | IC50 (HCT116; [9]) [nM] | IC50 (HCT116; [10]) [nM] | SMILES | IC50 (Wnt signaling) [nM] | further results |
| --- | --- | --- | --- | --- | --- | --- | --- | --- | --- | --- | --- | --- |
| 1330 | 180 | 1150 | 3160 | 210 | 1040 |  |  |  |  | Oc1c(Cl)cccc1-c1nc2cc(C(F)(F)F)ccc2[nH]1 [Compound 5, 2-Chloro-6-(5-(trifluoromethyl)-1H-benzo[d]imidazol-2-yl)phenol] | 2770 | IC50 (2LMP; [11]): 920 nM; IC50 (2LMP; [12]): 1150 nM; IC50 (HCC1143; [13]): 500 nM; IC50 (HCC1143; [14]): 1190 nM; IC50 (SUM159; [15]): 340 nM; IC50 (SUM159; [16]): 500 nM; IC50 (MDA-MB-468; [17]): 170 nM; IC50 (MDA-MB-468; [18]): 1410 nM |
| 4470 | 300 | 610 | 5210 | 770 | 3880 |  |  |  |  | FC(F)(F)c1ccc(-c2nc3c(Cl)cc(Cl)cc3[nH]2)cc1 [Compound 7, 4,6-Dichloro-2-(4-(trifluoromethyl)phenyl)-1H-benzo[d]imidazole] | 6010 | IC50 (2LMP; [11]): 13000 nM; IC50 (2LMP; [12]): 16800 nM; IC50 (L3.6pl; [19]): 660 nM; IC50 (L3.6pl; [20]): 570 nM; IC50 (HCC1143; [13]): 700 nM; IC50 (HCC1143; [14]): 4500 nM; IC50 (SUM159; [15]): 900 nM; IC50 (SUM159; [16]): 1130 nM; IC50 (MDA-MB-468; [17]): 160 nM; IC50 (MDA-MB-468; [18]): 1290 nM |
| > 10000 | 1060 | 840 | 8920 | 770 | 4860 |  |  |  |  | FC(F)(F)Oc1ccc(-c2nc3c(Cl)cc(Cl)cc3[nH]2)cc1 [Compound 8, 4,6-Dichloro-2-(4-(trifluoromethoxy)phenyl)-1H-benzo[d]imidazole] | 7920 | IC50 (L3.6pl; [19]): 620 nM; IC50 (L3.6pl; [20]): 1190 nM |
|  |  | 150 | 160 | 80 | 110 | 50 | 60 | 80 | 110 | c1cc2[nH]c(-c3ccc(N4CCCC4)cc3)nc2cn1 [Compound 28, 2-(4-(pyrrolidin-1-yl)phenyl)-1H-imidazo[4,5-c]pyridine] | 10400 |  |
|  |  | 940 | 950 | 750 | 510 | 40 | 590 | 160 | 580 | Fc1cc2[nH]c(-c3ccc(N4CCCC4)cc3)nc2cc1Cl [Compound 31, 5-chloro-6-fluoro-2-(4-(pyrrolidin-1-yl)phenyl)-1H-benzo[d]imidazole] | 330 |  |
